Columns and labels:
[1] = Cell growth assay, WST-8 (compounds B1-B126); assay type: cell-based; details: 96 h; T47D cell line, WST-8, 4 days; read-out: Cell growth inhibition in T47D cell line IC50
Description: Cell Growth Assay. The cells are seeded at certain concentration (e.g., at 1500/well) in multi-well plates overnight. Cells are subsequently treated with the compounds. A certain period of time (e.g., 4 days) after the compound treatment, 10% WST-8 reagent is added to the culture medium and incubate under certain condiction (e.g., in a CO2 incubator at 37° C. for 2.5 hours). The absorbance is measured on each sample using a microplate reader at certain wavelength (e.g., 450 nm). The relative absorbance is calculated against the vehicle control from three individually repeats.
Cell Growth Assay. The cells were seeded at 1500/well in 96 well plates overnight. One day after the seeding, they were treated with indicated doses of compounds respectively. 4 days after the compound treatment, 10% WST-8 reagent was added to the culture medium and incubate in a CO2 incubator at 37° C. for 2.5 hours. Before reading, the plate was mixed gently on an orbital shaker for one minute to ensure homogeneous distribution of color. The absorbance was measured of each sample using a microplate reader at a wavelength of 450 nm. The relative absorbance was calculated against the vehicle control from three individually repeats.

ER = biological target: T1, ER (Homo sapiens, UniProt P03372); assay: In-cell western blot analysis, relative ER percentage (compounds B1-B126); assay type: cell-based; details: ER degradation, 16 hours, read-out: ICW DC50
T1 construct: endogenous in cells; probably T47D or MCF-7
T1 sequence (P03372 1-595): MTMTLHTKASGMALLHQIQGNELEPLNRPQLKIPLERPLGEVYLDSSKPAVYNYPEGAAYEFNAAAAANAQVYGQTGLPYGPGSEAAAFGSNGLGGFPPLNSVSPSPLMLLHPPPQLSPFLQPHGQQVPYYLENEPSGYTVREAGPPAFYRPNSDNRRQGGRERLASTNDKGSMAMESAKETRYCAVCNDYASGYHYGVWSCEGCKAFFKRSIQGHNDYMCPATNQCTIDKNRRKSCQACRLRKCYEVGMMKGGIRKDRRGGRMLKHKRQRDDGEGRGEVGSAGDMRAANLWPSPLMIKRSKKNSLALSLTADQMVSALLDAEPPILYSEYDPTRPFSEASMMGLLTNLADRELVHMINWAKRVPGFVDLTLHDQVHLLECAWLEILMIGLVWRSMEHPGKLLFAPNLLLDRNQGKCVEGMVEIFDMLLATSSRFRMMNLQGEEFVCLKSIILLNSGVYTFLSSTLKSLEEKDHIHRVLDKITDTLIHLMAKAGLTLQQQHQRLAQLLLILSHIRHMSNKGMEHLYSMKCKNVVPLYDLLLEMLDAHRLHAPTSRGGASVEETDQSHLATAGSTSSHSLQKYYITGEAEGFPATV
Description: In-cell western blot analysis. Cells are seeded in multi-well plates (e.g., at 40,000 or 10,000 cells/well). Diluted compounds at certain concentration are added (final 0.5% DMSO) and cells are incubated for a certain period of time (e.g., 16 hours). Formaldehyde (e.g., PBS: FA=9:1) is added and followed by washing with PBS. The cells are blocked with Licor blocking buffer (Li-Cor). The relative ER percentage in treated cells are obtained by comparing the values of treated wells to those in untreated and DMSO-treated wells as 100%.
In-cell western blot analysis. a. seed cells in black-sided/clear bottom 96- or 384-well plates at 40,000 or 10,000 cells/well, overnight; b. add diluted compounds (final 0.5% DMSO), 16 hours. […] RT 2h, gentle shaking. Negative control: cells plus secondary antibodies (no primary antibodies); e. wash×4 with PBS +0.05-0.1% Tween 20, gentel shaking; f. anti-rabbit-680 and anti-mouse-800 (both 1:1000 in LiCor block+0.05% Tween20, RT 1h, gentle shaking, no light. LI-COR: 0.2% to reduce background; g. wash×4 with PBS+0.05% Tween 20, gental shaking; h. add 100 μL or 25 μL of PBS to each well and read on CLX plate reader. The relative ER percentage in treated cells were obtained by comparing the values of treated wells to those in untreated and DMSO-treated wells as 100%.

| SMILES | DC50 (ER) [nM] | IC50 [1] [nM] |
| --- | --- | --- |
| C[C@@H]1Cc2c(ccc3[nH]ncc23)[C@@H](c2c(F)cc(C3CCN(C(=O)CN4CCN5c6cc7c(cc6OC[C@@H]5C4)C(=O)N(C4CCC(=O)NC4=O)C7)CC3)cc2F)N1CC(F)F (stereo partly drawn) [Compound B28, 3-((S)-3-(2-(4-(4-((6S,8R)-7-(2,2-difluoroethyl)-8-methyl-6,7,8,9-tetrahydro-3H-pyrazolo[4,3-f]isoquinolin-6-yl)-3,5-difluorophenyl)piperidin-1-yl)-2-oxoethyl)-8-oxo-1,2,3,4,4a,5,8,10-octahydro-9H-pyrazino[1′,2′:4,5][1,4]oxazino[2,3-f]isoindol-9-yl)piperidine-2,6-dione] | 10 to 100 | < 1 |
| C[C@@H]1Cc2c(ccc3[nH]ncc23)[C@@H](c2c(F)cc(N3CCC(CN4CCN5c6c(ccc7c6CN(C6CCC(=O)NC6=O)C7=O)OC[C@@H]5C4)CC3)cc2F)N1CC(F)F (stereo partly drawn) [Compound B99, 3-((S)-9-((1-(4-((6S,8R)-7-(2,2-difluoroethyl)-8-methyl-6,7,8,9-tetrahydro-3H-pyrazolo[4,3-f]isoquinolin-6-yl)-3,5-difluorophenyl)piperidin-4-yl)methyl)-3-oxo-1,3,7,7a,8,9,10,11-octahydro-2H-pyrazino[1′,2′:4,5][1,4]oxazino[3,2-e]isoindol-2-yl)piperidine-2,6-dione] | 10 to 100 | > 10 |
| COc1c2c(cc3c1CN(C1CCC(=O)NC1=O)C3=O)CN(CC(=O)N1CC3(CCN(c4cc(F)c([C@@H]5c6ccc7[nH]ncc7c6C[C@@H](C)N5CC(F)F)c(F)c4)CC3)C1)C2 (stereo partly drawn) [Compound B73, 3-(6-(2-(7-(4-((6S,8R)-7-(2,2-difluoroethyl)-8-methyl-6,7,8,9-tetrahydro-3H-pyrazolo[4,3-f]isoquinolin-6-yl)-3,5-difluorophenyl)-2,7-diazaspiro[3.5]nonan-2-yl)-2-oxoethyl)-4-methoxy-1-oxo-3,5,6,7-tetrahydropyrrolo[3,4-f]isoindol-2(1H)-yl)piperidine-2,6-dione] | 10 to 100 | < 1 |
| COc1cc(N2CCC3(CC2)CC(CN2CCN4c5cc6c(cc5OC[C@H]4C2)C(=O)N(C2CCC(=O)NC2=O)C6)C3)ccc1[C@@H]1c2ccc3[nH]ncc3c2C[C@@H](C)N1CC(F)F (stereo partly drawn) [Compound B55, 3-((R)-3-((7-(4-((6S,8R)-7-(2,2-difluoroethyl)-8-methyl-6,7,8,9-tetrahydro-3H-pyrazolo[4,3-f]isoquinolin-6-yl)-3-methoxyphenyl)-7-azaspiro[3.5]nonan-2-yl)methyl)-8-oxo-1,2,3,4,4a,5,8,10-octahydro-9H-pyrazino[1′,2′:4,5][1,4]oxazino[2,3-f]isoindol-9-yl)piperidine-2,6-dione] | > 100 | 1 to 10 |
| C[C@@H]1Cc2c(ccc3[nH]ncc23)[C@@H](c2c(F)cc(N3CCC4(CN(C(=O)CN5CCN6c7cc8c(cc7OC[C@@H]6C5)C(=O)N(C5CCC(=O)NC5=O)C8)C4)C3)cc2F)N1CC(F)F (stereo partly drawn) [Compound B37, 3-((S)-3-(2-(6-(4-((6S,8R)-7-(2,2-difluoroethyl)-8-methyl-6,7,8,9-tetrahydro-3H-pyrazolo[4,3-f]isoquinolin-6-yl)-3,5-difluorophenyl)-2,6-diazaspiro[3.4]octan-2-yl)-2-oxoethyl)-8-oxo-1,2,3,4,4a,5,8,10-octahydro-9H-pyrazino[1′,2′:4,5][1,4]oxazino[2,3-f]isoindol-9-yl)piperidine-2,6-dione] | < 10 | < 1 |
| C[C@@H]1Cc2c(ccc3[nH]ncc23)[C@@H](c2c(F)cc(N3CCC(CN4CCN5c6ccc7c(c6N(C)C[C@@H]5C4)CN(C4CCC(=O)NC4=O)C7=O)CC3)cc2F)N1CC(F)F (stereo partly drawn) [Compound B30, 3-((S)-7-((1-(4-((6S,8R)-7-(2,2-difluoroethyl)-8-methyl-6,7,8,9-tetrahydro-3H-pyrazolo[4,3-f]isoquinolin-6-yl)-3,5-difluorophenyl)piperidin-4-yl)methyl)-4-methyl-1-oxo-3,4,5,5a,6,7,8,9-octahydropyrazino[1,2-a]pyrrolo[3,4-f]quinoxalin-2(1H)-yl)piperidine-2,6-dione] | < 10 | 1 to 10 |
| COc1c2c(cc3c1CN(C1CCC(=O)NC1=O)C3=O)CN(CC(=O)N1CCC3(CC1)CCN(c1ccc([C@@H]4c5ccc6[nH]ncc6c5C[C@@H](C)N4CC(F)(F)F)nc1)CC3)C2 (stereo partly drawn) [Compound B75, 3-(4-methoxy-6-(2-(9-(6-((6S,8R)-8-methyl-7-(2,2,2-trifluoroethyl)-6,7,8,9-tetrahydro-3H-pyrazolo[4,3-f]isoquinolin-6-yl)pyridin-3-yl)-3,9-diazaspiro[5.5]undecan-3-yl)-2-oxoethyl)-1-oxo-3,5,6,7-tetrahydropyrrolo[3,4-f]isoindol-2(1H)-yl)piperidine-2,6-dione] |  | < 1 |

Second part, led by results:

| DC50 (ER) [nM] | SMILES | IC50 [1] [nM] |
| --- | --- | --- |
| < 10 | C[C@@H]1Cc2c(ccc3[nH]ncc23)[C@@H](c2ccc(N3CCC4(CCC(CN5CCN6c7ccc8c(c7OCC6C5)CN([C@H]5CCC(=O)NC5=O)C8=O)CO4)CC3)nn2)N1CC(F)(F)F (stereo partly drawn) [Compound B127, (3S)-3-(7-((9-(6-((6S,8R)-8-methyl-7-(2,2,2-trifluoroethyl)-6,7,8,9-tetrahydro-3H-pyrazolo[4,3-f]isoquinolin-6-yl)pyridazin-3-yl)-1-oxa-9-azaspiro[5.5]undecan-3-yl)methyl)-1-oxo-1,3,5,5a,6,7,8,9-octahydro-2H-pyrazino[1′,2′:4,5][1,4]oxazino[2,3-e]isoindol-2-yl)piperidine-2,6-dione] | < 1 |
| > 100 | C[C@@H]1Cc2c(ccc3[nH]ncc23)[C@@H](c2ccc(N3CC4(CCC(CN5CCN6c7c(ccc8c7CN(C7CCC(=O)NC7=O)C8=O)OC[C@@H]6C5)CC4)C3)cn2)N1CC(F)(F)F (stereo partly drawn) [Compound B110, 3-((S)-9-((2-(6-((6S,8R)-8-methyl-7-(2,2,2-trifluoroethyl)-6,7,8,9-tetrahydro-3H-pyrazolo[4,3-f]isoquinolin-6-yl)pyridin-3-yl)-2-azaspiro[3.5]nonan-7-yl)methyl)-3-oxo-1,3,7,7a,8,9,10,11-octahydro-2H-pyrazino[1′,2′:4,5][1,4]oxazino[3,2-e]isoindol-2-yl)piperidine-2,6-dione] | 1 to 10 |
| > 100 | C[C@@H]1Cc2c(ccc3[nH]ncc23)[C@@H](c2ccc(N3CCC4(CC3)CC(CN3CCN5c6ccc(C(=O)N(C)C7CCC(=O)NC7=O)nc6OC[C@H]5C3)C4)cn2)N1CC(F)(F)F (stereo partly drawn) [Compound B92, (4aR)-N-(2,6-dioxopiperidin-3-yl)-N-methyl-3-((7-(6-((6S,8R)-8-methyl-7-(2,2,2-trifluoroethyl)-6,7,8,9-tetrahydro-3H-pyrazolo[4,3-f]isoquinolin-6-yl)pyridin-3-yl)-7-azaspiro[3.5]nonan-2-yl)methyl)-1,2,3,4,4a,5-hexahydropyrazino[1,2-d]pyrido[2,3-b][1,4]oxazine-8-carboxamide] | > 10 |
| > 100 | C[C@@H]1Cc2c(ccc3[nH]ncc23)[C@@H](c2ccc(N3CCC4(CC3)CC(CN3CCN5c6ccc(C(=O)N[C@H]7CCC(=O)NC7=O)nc6OC[C@H]5C3)C4)cn2)N1CC(F)(F)F [Compound B89, (R)-N-((S)-2,6-dioxopiperidin-3-yl)-3-((7-(6-((6S,8R)-8-methyl-7-(2,2,2-trifluoroethyl)-6,7,8,9-tetrahydro-3H-pyrazolo[4,3-f]isoquinolin-6-yl)pyridin-3-yl)-7-azaspiro[3.5]nonan-2-yl)methyl)-1,2,3,4,4a,5-hexahydropyrazino[1,2-d]pyrido[2,3-b][1,4]oxazine-8-carboxamide] | > 10 |
